# Experimental data from patent publication US10912741B2, “Prevention of liver cancer with safranal-based formulations” (United Arab Emirates University, priority 2019, dated 2021).
# Marks after values point to notes of the source that are not given here.
# Key:
# ED-2 (Kupffer cells) = assay: Immunohistochemical staining of liver sections, ED-2 positive cells (Kupffer cells); assay type: in vivo, albino Wistar rats; settings: mean±SEM, 8 rats
# Method: The experimental hepatocarcinogenesis model was developed according to a protocol by Espandiaria et al. that was adapted for our purposes. To initiate and promote hepatocarcinogenesis, diethylnitrosamine (DEN) and 2-acetylaminofluorene (2-AAF) were used, respectively. For hepatocarcinogenesis initiation in this model, a single DEN dose (200 mg/kg b.wt.) dissolved in saline was injected intraperitoneally. After initiation, all rats underwent one period of 5-days fasting, as mitotic proliferative stimuli. To promote hepatocarcinogenesis, 2-acetylaminofluorene (2-AAF) was introduced in the form of six daily intragastric doses (30 mg/kg in 1% Tween 80); two weeks after DEN treatment.
# Safranal at doses of 25 mg/kg by weight (b.wt.) and 50 mg/kg b.wt, was administrated orally to rats. These doses have been reported to suppress chemically-induced oxidative damage in rats. A total of 40 adult male albino Wistar rats were randomly divided into […] (n=8) and were subjected to different treatments. Group 1 (control) was orally administered distilled water (5 ml/kg b.wt.) throughout the experimental duration and were injected with a single dose of saline. Group 2 (Safranal only) was subjected to a safranal dose (50 mg/kg b.wt.) through oral administration for the duration of the experimental period. Hepatocarcinogenesis was induced by DEN and promoted by 2-AAF, as reported previously, in group 3 (HCC). Rats in protective groups (groups 4-5) were treated with low/high doses of saffron-based safranal suspensions, at the beginning of promotion periods and continued for 12 weeks. The low dosage treatment with safranal consisted of 25 mg/kg b.wt., and the high dosage treatment consisted of 50 mg/kg b.wt. The experimental design is illustrated in FIG. 1.
# For immunohistochemical staining, mounted sections were immersed in sodium citrate buffer (0.1 M, pH 6) and placed in a water bath for 15 minutes to unmask antigen epitopes. […] Ten fields were randomly selected to quantify positive cells, in individual samples (400×). […]
# p-H2AX in HepG2 cells = assay: Western blotting, p-H2AX; assay type: cell-based, human; settings: 24 hours of safranal treatment (1 mM)
# Method: HepG2, were cultured in RPMI 1640 medium (HyClone, USA) and 1% of 100 U/ml penicillin and 100 ug/ml streptomycin (Sigma, USA) supplemented with 10% fetal bovine serum (Sigma, USA) at 37° C. in a humidified 5% CO2 atmosphere. Cells were sub-cultured each 4-6 days using trypsin 0.25% (Hyclone, USA).
# In 100 mm plates, HepG2 cells were seeded at a density of 2×10^4 in complete growth medium. Cells were allowed to attach for 24 hours, after which complete growth medium was replaced by serum-free medium. Cells were treated with safranal at a concentration of 1 mM (20 mM stock). Plates were incubated for 6, 12, 24, and 48 hours in a humidified 5% CO2 atmosphere at 37° C. At indicated times, 1 mL of cell supernatant was obtained from each plate and was stored at −80° C. for further analysis by ELISA. After which whole cell lysates were prepared. Bicinchoninic acid (BCA) assay (Sigma-Aldrich, USA) was used to determine concentration of protein. Thirty μg of protein were loaded onto 10% SDS polyacrylamide electrophoresis gels. The gels were transferred onto nitrocellulose membranes prior to immunodetection processing with anti-p-IkB-alpha, anti-H2AX (Cell Signaling Technology, USA), and with anti-rabbit IgG peroxidase conjugated secondary antibodies. […]
smiles,measurement,setting,value
"CC1=C(C=O)C(C)(C)CC=C1 [Safranal, 2,6,6-trimethylcyclohexa-1,3-diene-1-carbaldehyde]",ED-2 positive cells,"ED-2 (Kupffer cells); HCC (DEN/2-AAF) rats + safranal high dose 50 mg/kg b.wt. oral, 12 weeks",46.44 ± 3.12^b positive cells/field
same,ED-2 positive cells,"ED-2 (Kupffer cells); HCC (DEN/2-AAF) rats + safranal low dose 25 mg/kg b.wt. oral, 12 weeks",46.75 ± 3.04^b positive cells/field
same,ED-2 positive cells,"ED-2 (Kupffer cells); safranal alone 50 mg/kg b.wt. oral, no DEN (group 2)",39.30 ± 1.77 positive cells/field
same,protein level of p-H2AX,p-H2AX in HepG2 cells,remarkable induction of p-H2AX
